Measured values reported in patent US9750756B2, “Celecoxib compositions” (Pfizer Inc., priority 1998, dated 2017).

Test: Effect of food study (Example 17)
Type: in vivo, human
Conditions: healthy adult subjects, single 50 mg or 100 mg capsule doses, fasting or fed
Description: An open-label randomized, single dose, four-way crossover study was employed to evaluate the dose proportionality and the effect of food on the pharmacokinetic profile of celecoxib in healthy adult subjects. Safety was assessed based on adverse events, vital signs and clinical laboratory tests. Twenty four healthy adult subjects were randomized to receive the following single doses of celecoxib: (A) a 50 mg dose capsule under fasting conditions, (B) a 50 mg dose capsule immediately following a high fat breakfast, (C) a 100 mg dose capsule under fasting conditions, and (D) a 100 mg dose capsule immediately following a high fat breakfast. The subjects received the study medication on days 1, 8, 15 and 22 in one of four treatment sequences (ADBC; BACD; CBDA; and DCAB). The specific composition of the 100 mg dose capsule is disclosed in Example 1. The specific composition of the 50 mg dose capsule is disclosed in Table 17A below:
Blood samples were collected at −0.25 (predose), 0.5, 1, 1.5, 2, 3, 4, 6, 8, 12, 16, 24, 36 and 48 hours post dose. Analyses of the separated plasma were performed at PPD Pharmaco, Richmond, Va. Celecoxib plasma concentrations were determined using a validated high performance liquid chromatography (“HPLC”) procedure with a lower limit of detection of 10.0 ng/ml. […] All adverse events were mild in severity.

## Cc1ccc(-c2cc(C(F)(F)F)nn2-c2ccc(S(N)(=O)=O)cc2)cc1 [celecoxib, 4-[5-(4-methylphenyl)-3-(trifluoromethyl)-1H-pyrazol-1-yl]benzenesulfonamide]
  changes in vital signs or physical examinations: no clinically significant changes
  severity of adverse events: mild
